{"source": "patent US9987379B2", "about": "“Molecular probes for imaging of myelin” (Case Western Reserve University, priority 2008, dated 2018)", "key": {"[1]": {"system": "myelinated corpus callosum and cerebellum", "assay": "In vitro staining of myelinated white matter in mouse brain tissue sections (fluorescent microscopy)", "assay_type": "binding", "conditions": "10 μM, wild-type mouse brain sections", "method": "We then evaluated the myelin-binding properties of the newly synthesized compounds 3, 6, and 7 through in vitro staining of mouse brain tissue sections. Both myelinated corpus callosum and cerebellar regions were then examined by fluorescent microscopy.\nNormal control mice were deeply anesthetized and perfused transcardially with saline (10 mL) followed by fixation with 4% PFA in PBS (10 mL, 4° C., pH 7.6). Brain tissues were then removed, postfixed by immersion in 4% PFA overnight, dehydrated in 30% sucrose solution, embedded in freezing compound (OCT, Fisher Scientific, Suwanee, Ga.), cryostat sectioned at 10 μm on a microtome and mounted on superfrost slides (Fisher Scientific). The brain sections were incubated with compound 3, 6 and 7 (10 μM, 1% DMSO in PBS (10 mM, pH 7.0)) for 20 minutes at room temperature in dark. Excess compounds were washed by briefly rinsing the slides in PBS (10 mM, pH 7.0) and coversliped with fluoromount-G mounting media (Vector Laboratories, Burlingame, Calif.). Sections were then examined under a Leica DRMB microscope equipped for fluorescence."}, "[2]": {"biological_target": "[3H]BMB binding sites on rat myelin fractions", "assay": "Competition binding assay using [3H]BMB as radioligand in isolated myelin fractions", "conditions": "1.87 nM [3H]BMB, Cheng-Prusoff from IC50", "method": "FIG. 4 illustrates plots of competition binding assays of test compounds using [^3H]BMB as the radioligand in isolated myelin fractions. The concentrations that inhibited 50% of specific binding of [^3H]BMB (IC50 values) were converted to inhibition constant (Ki). Ki values were calculated using the Cheng-Prusoff equation: Ki=IC50/(1+[L]/Kd), where [L] is the concentration of [^3H]BMB used in the assay. Data are means of three independent measurements done in duplicate.\nIn vitro binding assay using radioligand is the most sensitive techniques available to quantitatively determine the binding affinities of compounds to certain proteins. Our previous studies have shown that BMB binds to myelin sheaths with high affinity and specifity (Stankoff, B.; Wang, Y.; Bottlaender, M.; Aigrot, M. S.; Dolle, F. et al. Imaging of CNS myelin by positron-emission tomography. Proc Natl Acad Sci USA 2006, 103, 9304-9309). For this reason, tritiated BMB was custom synthesized by American Radiolabeled Chemicals Inc. (St Louis, Mo.) and was used as the radioligand for binding assays. This allowed us to determine the binding affinities of the newly synthesized compounds using isolated rat myelin fractions. Saturation experiment was first conducted using [^3H]BMB. […] Competitive binding assays were also conducted using [^3H]BMB as radioligand. The stilbene derivatives competed effectively with [^3H]BMB binding sites on rat myelin fractions at affinities of low micromole concentrations.\n(§1) Sprague-Dawley (SD) rats were asphyxiated with CO2. When the rat had stopped breathing, the skin/fur over the neck was wetted with a spray of 70% ethanol. […] The concentration of myelin and pellet were determined by Bio-Rad Protein Assay.\nThe radioligand-based binding assays were carried out in 12×75 mm borosilicate glass tubes. […] Nonspecific binding was defined in the presence of cold BMB (1 μM, diluted in PBS (containing 1% DMSO) in the same assay tubes. For the competition binding, 10^−5 to 10^−10 M compounds and 1.87 nM [^3H]BMB were used for the studies. The mixture was incubated at 37° C. for 2 hrs. The bound and free radioactivity were separated by rapid vacuum filtration through Whatman GF/B filters using a Brandel M-24R cell harvester followed by 3×2 mL washes of PBS at room temperature. Filters containing the bound radioligand were dissolved in 6 mL biodegradable counting cocktail overnight and the radioactivity was assayed next day in the scintillation counter (Beckman) with 42% counting efficiency. The results of saturation and inhibition experiments were subjected to nonlinear regression analysis using Graph Pad Prism 4 by which Kd and Ki values were calculated."}, "[3]": {"assay": "Solubility in organic solvents", "assay_type": "physicochemical"}, "myelinated cerebellum": {"system": "myelinated cerebellum", "assay": "In situ tissue staining of myelinated white matter after tail vein injection", "assay_type": "in vivo, mouse", "conditions": "20-80 mg/kg tail vein, three hours post injection, wild-type mice", "method": "Following our in vitro tissue staining studies, we then evaluated the brain permeability and subsequent myelin-binding properties of 6 and 7 in the mouse brain. A dose of 6 or 7 (20-80 mg/kg) was administered via tail vein injection into wild-type mice. Three hours post injection, the mouse brains were perfused with saline followed by 4% paraformaldehyde (PFA) and removed. The fresh frozen brains were then sectioned. Fluorescent staining of myelinated regions such as the cerebellum were then directly examined under a microscope.\nUnder anesthesia, wild-type mice were injected with compounds 6 and 7 (20-80 mg/kg) via the tail vein, and the mice were then perfused transcardially with saline (10 ml) followed by 4% PFA in PBS (10 ml, 4° C., pH 7.6). Brain tissues were then removed, postfixed by immersion in 4% PFA overnight, dehydrated in 30% sucrose solution, cryostat sectioned at 16 μm on a microtome and mounted on superfrost slides (Fisher Scientific), and imaged directly under fluorescent microscopy without any further staining."}, "[4]": {"system": "isolated myelin fractions", "assay": "Spectrophotometry-based binding assay with isolated myelin fractions", "design": "species or system rat", "conditions": "10 μM compound per tube, 1 h room temperature", "method": "(§2) FIG. 2 illustrates plots of the concentrations of free, unbound 6 and 7 following incubation with isolated myelin fractions and non-myelin pellets based upon a spectroscopic assay. In these assays, 10 μM of 6 and 7 was added to each solution containing myelin fractions or non-myelin pellets at various concentrations ranging from 0-2.5 μg per tube. Each data point was repeated in triplicate and an average was used.\nBinding affinities of newly synthesized compounds 6 and 7 were determined based on spectrophotometry. […] The desired proteins were aliquoted and frozen at −80° C. for up to 6 months without noticeable change in its properties determined by electrophoresis (data not shown). […] The free and bound tested compounds were then separated by centrifuging at 6000 rpm for 10 min and quantified.\nSprague-Dawley (SD) rats were asphyxiated with CO2. […] The concentration of myelin and pellet were determined by Bio-Rad Protein Assay.\nIn the spectrophotometry-based binding assays, a solution of 6 or 7 (800 μL, 12.5 μM) dissolved in 10% DMSO buffer solution containing 10 mM MgCl2 and 10 mM PBS (pH 7.4) was incubated with isolated myelin or pellets at different concentrations ranging from 0.06 to 14 μg/tube. […] In parallel, non-specific binding was determined using pellets under the same condition. […]"}, "non-myelin pellets": {"system": "non-myelin pellets", "assay": "Spectrophotometry-based binding assay with non-myelin pellets", "design": "species or system rat", "conditions": "1 h room temperature; for binding to non-myelin fractions: 10 μM compound per tube; for concentration of free, unbound compound (constant and close to the total concentration initially used): incubated with non-myelin pellet at increasing concentration", "method": "as §2\nBinding affinities of newly synthesized compounds 6 and 7 were determined based on spectrophotometry. Myelin sheaths and non-myelin pellets were extracted from rat's brain homogenates according to subcellular fraction protocol (Martenson, R. E.; Deibler, G. E.; Kies, M. W. Extraction of rat myelin basic protein free of other basic proteins of whole central nervous system tissue. An analysis of its electrophoretic heterogeneity. J Biol Chem 1969, 244, 4268-4272). Briefly, the homogenates were successively mixed with different concentrations of sucrose and spun in a Beckman ultracentrifuge. Myelin sheaths and non-myelin containing pellets were well separated according to their different densities and located in different layers of sucrose. The proteins were then collected and washed thoroughly with Colman buffer (10 mM). The desired proteins were aliquoted and frozen at −80° C. for up to 6 months without noticeable change in its properties determined by electrophoresis (data not shown). Prior to binding assays, the protein fractions (myelin and pellet) were thawed and diluted with PBS (10 mM, pH 7.0). A series of concentrations of the protein fractions were incubated with tested compounds (6 and 7, 12.5 μM) for 1 h at room temperature. The free and bound tested compounds were then separated by centrifuging at 6000 rpm for 10 min and quantified.\nas §1\nIn the spectrophotometry-based binding assays, a solution of 6 or 7 (800 μL, 12.5 μM) dissolved in 10% DMSO buffer solution containing 10 mM MgCl2 and 10 mM PBS (pH 7.4) was incubated with isolated myelin or pellets at different concentrations ranging from 0.06 to 14 μg/tube. […] Following incubation at room temperature for 1 hr, the free and bound 6 or 7 was separated by centrifugation at 6000 rpm for 10 min The supernatant was then collected and the UV absorption of free 6 or 7 determined by UV spectrometer were at 350 nm or 363 nm. […] In parallel, non-specific binding was determined using pellets under the same condition. […]"}}}
{"smiles": "Nc1ccc(/C=C/c2ccc(N)cc2)cc1", "note": "[Compound 3, (E)-4,4′-diamino-trans-stilbene]", "values": [{"measurement": "in vitro fluorescent staining of brain tissue sections", "setting": "[1]", "value": "selectively labeled both corpus callosum and cerebellum"}, {"measurement": "Ki", "setting": "[2]", "value": 370, "unit": "nM"}, {"measurement": "solubility", "setting": "[3]", "value": "soluble in EtOH, CH2Cl2, DMSO and other organic solvents"}]}
{"smiles": "CN(C)c1ccc(/C=C/c2ccc(N)cc2)cc1", "note": "[Compound 6, (E)-dimethyl-{4-[2-(4-amino-phenyl)-vinyl]-phenyl}-amine]", "values": [{"measurement": "in vitro fluorescent staining of brain tissue sections", "setting": "[1]", "value": "selectively labeled both corpus callosum and cerebellum"}, {"measurement": "brain entry and in situ labeling of myelin", "setting": "myelinated cerebellum", "value": "readily entered the mouse brain and selectively labeled myelinated cerebellum"}, {"measurement": "binding to myelin fractions (free concentration decreased proportionally with myelin concentration)", "setting": "[4]", "value": "specific binding interactions exist"}, {"measurement": "binding to non-myelin fractions", "setting": "non-myelin pellets", "value": "no binding to the non-myelin fractions"}, {"measurement": "concentration of free, unbound compound (constant and close to the total concentration initially used)", "setting": "non-myelin pellets", "value": "~10.47", "unit": "µM"}, {"measurement": "Ki", "setting": "[2]", "value": 119, "unit": "nM"}, {"measurement": "solubility", "setting": "[3]", "value": "soluble in EtOH, CH2Cl2, DMSO and other organic solvents"}]}
{"smiles": "CNc1ccc(C=Cc2ccc(N)cc2)cc1", "note": "[Compound 7, N-methyl-{4-[2-(4-amino-phenyl)-vinyl]-phenyl}-amine]", "values": [{"measurement": "in vitro fluorescent staining of brain tissue sections", "setting": "[1]", "value": "selectively labeled both corpus callosum and cerebellum"}, {"measurement": "brain entry and in situ labeling of myelin", "setting": "myelinated cerebellum", "value": "readily entered the mouse brain and selectively labeled myelinated cerebellum"}, {"measurement": "binding to myelin fractions (free concentration decreased proportionally with myelin concentration)", "setting": "[4]", "value": "specific binding interactions exist"}, {"measurement": "binding to non-myelin fractions", "setting": "non-myelin pellets", "value": "no binding to the non-myelin fractions"}, {"measurement": "concentration of free, unbound compound (constant and close to the total concentration initially used)", "setting": "non-myelin pellets", "value": "~10.53", "unit": "µM"}, {"measurement": "Ki", "setting": "[2]", "value": 126, "unit": "nM"}, {"measurement": "solubility", "setting": "[3]", "value": "soluble in EtOH, CH2Cl2, DMSO and other organic solvents"}]}
{"smiles": "Nc1ccc(C=Cc2ccc(I)cc2)cc1", "note": "[Compound 9, 4-[2-(4-Iodo-phenyl)-vinyl]-phenylamine]", "values": [{"measurement": "Ki", "setting": "[2]", "value": 494, "unit": "nM"}]}
